Values after ≈ are worked out from the molar mass of the structure shown. Where a name gives a salt, the structure may show the parent alone.
Assay: Solubility
Assay type: physicochemical
Details: for Solubilités : soluble dans le diméthyl sulfoxyde: in dimethyl sulfoxide (DMSO); for solubility: in water, read-out: Solubilités : soluble dans l'eau

| SMILES | Solubilités : soluble dans le diméthyl sulfoxyde | solubility |
| --- | --- | --- |
| CC1CCCCC1OCC(O)CNC(C)(C)C (centres unmarked) [Exemple 1, tertiobutylamino-3 (méthyl-2 cyclohexyloxy)-1 propanol-2, maléate] | 15% | 100 mg/mL (≈ 411 mM) |
| C#CC(C)(C)NCC(O)COC1CCCCC1 (centres unmarked) [Exemple 3, (diméthyl-1,1 propyne-2 yl-1) amino-3, cyclohexyloxy-1 propanol-2 oxalate] | – | 20 mg/mL |
| CC(C)(C)NCC(O)COCCC1=CCC2CC1C2(C)C (centres unmarked) [Exemple 6, tertiobutylamino-3 [(diméthyl-6-6, bicyclo (3,1,1)hepten-2 yl)-2 éthoxy7-1 propanol-2, maléate] | 10% | 20 mg/mL (≈ 67.7 mM) |

Other lines, results leading:

| Solubilités : soluble dans le diméthyl sulfoxyde | solubility | SMILES |
| --- | --- | --- |
| 18% | 100 mg/mL (≈ 436 mM) | CC(C)NCC(O)COCC1CCCCC1 (centres unmarked) [Exemple 4, isopropylamino-3, cyclohexyl méthoxy-1 propanol-2 maléate] |
| 10% | 25 mg/mL (≈ 103 mM) | CC(C)(C)NCC(O)COCC1CCCCC1 (centres unmarked) [Exemple 5, tertiobutylamino-3 cyclohexyl méthoxy-1, propanol-2, maléate] |
| 15% | 100 mg/mL (≈ 414 mM) | CC(C)(C)NCC(O)COCC1CC=CCC1 (centres unmarked) [Exemple 8, tertiobutylamino-3 (cyclohexen-3 yl-1) méthoxy-1 propanol-2, maléate] |
